Results reported in patent US20170157192A1, “USE OF THE CHINESE MEDICINE COMPOSITION AND DIANXIANNING IN THE PREPARATION OF A MEDICAMENT FOR PREVENTING OR TREATING ALZHEIMER'S DISEASES” (Lanzhou University, priority 2014, published 2017).
Structures can show the parent of a compound that is named as a salt.

How the values were obtained:
[1] = tested on: transgenic C. elegans strain CL4176 expressing human Aβ; test: Aβ-induced paralysis in transgenic C. elegans strain CL4176; format: in vivo, Caenorhabditis elegans; conditions: Example 2, FIG. 1, dose-dependent
Excerpt: The present invention employed the transgenic C. elegans strain CL4176 as a pathological model to evaluate the effect of the Chinese medicine and DXN on preventing or treating AD. The principle of Aβ theory of AD is based on that Aβ aggregates in the cerebral cortex and hippocampus and subsequently forms senile plaques (SP), which is one of the most major pathological features of AD. Toxic Aβ can effectively weaken the structure and function of synapses, and cause memory impairment on the AD patients. Transgenic C. elegans strain CL4176 which expresses the human Aβ species in the muscle tissue that can induce Aβ-dependent paralysis at 25° C. was used in the present invention. Aβ aggregates in the muscle tissue, eventually resulting in the paralysis of CL4176. The medicament acts on C. elegans strain CL4176.
(1) C. elegans CL4176 is purchased from Caenorhabditis Genetics Center; which is a transgenic strain and muscle-specific expression of human Aβ can be induced at 25° C., and Aβ is aggregated in muscle tissue, resulting in the paralysis of C. elegans. CL4176 worm was used in the invention as a pathological model to screen and evaluate the anti-AD actions of the Chinese medicine compositions and DXN.
The synchronized C. elegans eggs were placed onto solid NGM coated with OP50 and containing different concentration of Memantine Hydrochloride. The blank control is a NMG medium coated with OP50 and added with the same volume of ddH2O to replace the Memantine Hydrochloride. The worms were cultured at 16° C. for 3 days to L3 larvae (about 60 worms per plate). The results are presented as the average of three biological replicates.
In order to induce the Aβ expression, the culture temperature of transgenic L3 larvae C. elegans CL4176 was shifted from 16° C. to 25° C. for 34 h. Then paralysis individuals were counted under a dissecting stereo microscope at 2 h intervals until all worms became paralyzed.
The synchronized C. elegans eggs were placed onto solid NGM coated with OP50 and containing working concentration of the Chinese medicine compositions. […]

C. elegans CL4176 = test: Toxicity on growth and development (body length) of C. elegans; format: in vivo, Caenorhabditis elegans; conditions: Example 2, FIG. 1
Procedure: C. elegans are sensitive to environmental changes, and drug toxicity can be accurately evaluated by using C. elegans. The body length is one of the most commonly used indictors of developmental toxicity.
After the end of paralysis experiment, worms were immediately placed at 50° C. for 15 min to straighten the body of every worm. The worms were observed and photographed under a microscope, and measured the length of every worm using MvImage system.

[2] = tested on: transgenic C. elegans strain CL4176 expressing human Aβ; conditions: 2.16 mg/mL; it has been reported; cited from earlier work

SMILES: CC12CC3CC(C)(C1)CC(N)(C3)C2 [Menantine Hydrochloride, 1-amino-3,5-dimethyl amantadine hydrochloride]
- delay of Aβ-induced paralysis of CL4176 ([1]; 4.32 μg/mL in NGM): significantly delayed the paralysis
- delay of Aβ-induced paralysis of CL4176 ([1]; 0.86m/mL in NGM): significantly delayed the paralysis
- delay of Aβ-induced paralysis of CL4176 ([1]; 21.58m/mL in NGM): significantly delayed the paralysis
- inhibition of development of C. elegans (C. elegans CL4176; 107.88 m/mL in NGM): strongly inhibit the development
- inhibition of development of C. elegans (C. elegans CL4176; 215.76 m/mL in NGM): strongly inhibit the development
- delay of Aβ-induced paralysis in transgenic CL4176 (reported) [2]: significantly delay Aβ-induced paralysis
